Data on 16 compounds can be found in PubChem BioAssay AID248 (DTP/NCI, 2004).

This experiment relates to L1210 leukemia ip in BDF1 mice, survival T/C. Nature of the experiment: NCI In Vivo Anticancer Drug Screen. Data for tumor model L1210 Leukemia (intraperitoneal) in B6D2F1 (BDF1) mice. The note with it: endpoint: mean survival time, higher = longer survival. The gist of the method: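 Each compound was tested against a transplantable tumor grown in mice. The endpoint was survival, with treated animals benchmarked against vehicle controls as a simple ratio.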

The mark [1] stands for this setting: dose: 50.0 mg/kg/injection, schedule: Q01DX009 (ip), vehicle: saline with Tween-80.
The mark [2] stands for this setting: dose: 100.0 mg/kg/injection, schedule: Q01DX001 (ip), vehicle: saline with Tween-80.
[3] abbreviates: dose: 100.0 mg/kg/injection, schedule: Q01DX009 (ip), vehicle: saline with Tween-80.
[4] abbreviates: dose: 100.0 mg/kg/injection, schedule: Q04DX002 (ip), vehicle: saline with Tween-80.
[5] abbreviates: dose: 100.0 mg/kg/injection, schedule: Q04DX003 (ip), vehicle: saline with Tween-80.
Where [6] appears, read: dose: 200.0 mg/kg/injection, schedule: Q01DX001 (ip), vehicle: saline with Tween-80.
Setting [7] is: dose: 200.0 mg/kg/injection, schedule: Q01DX009 (ip), vehicle: saline with Tween-80.
Where [8] appears, read: dose: 200.0 mg/kg/injection, schedule: Q04DX002 (ip), vehicle: saline with Tween-80.
Where [9] appears, read: dose: 200.0 mg/kg/injection, schedule: Q04DX003 (ip), vehicle: saline with Tween-80.
Where [10] appears, read: dose: 400.0 mg/kg/injection, schedule: Q01DX001 (ip), vehicle: saline with Tween-80.
Where [11] appears, read: dose: 200.0 mg/kg/injection, schedule: Q01DX009 (ip), vehicle: saline.
The mark [12] stands for this setting: dose: 400.0 mg/kg/injection, schedule: Q01DX009 (ip), vehicle: saline.
[13] abbreviates: dose: 50.0 mg/kg/injection, schedule: Q01DX001 (ip), vehicle: saline.
The mark [14] stands for this setting: dose: 100.0 mg/kg/injection, schedule: Q01DX001 (ip), vehicle: saline.
Where [15] appears, read: dose: 200.0 mg/kg/injection, schedule: Q01DX001 (ip), vehicle: saline.
The mark [16] stands for this setting: dose: 400.0 mg/kg/injection, schedule: Q01DX001 (ip), vehicle: saline.

Where “and” joins values, the source holds several entries; their conditions need not be identical. Equal entries are not always repeated. Toxic doses and inconclusive results are not listed.

Consider `CCOC(=O)N/N=C(/C)c1ccc(C)cc1`, for which the T/C is 95 % of control and 121 % of control under setting [1]; 103 % of control under setting [2]; 105 % of control and 89 % of control under setting [3]; 95 % of control and 104 % of control under setting [4]; 97 % of control under setting [5]; 101 % of control under setting [6]. Also, the T/C by setting is: under setting [7], 101 % of control and 110 % of control; under setting [8], 101 % of control and 110 % of control; under setting [9], 97 % of control; under setting [10], 102 % of control; (dose: 400.0 mg/kg/injection, schedule: Q04DX003 (ip), vehicle: saline with Tween-80) 110 % of control.
Regarding `Cc1cc(C)c(NC2=NCCS2)cc1C`, under setting [4], the T/C is 100 % of control.
Turning to `CC(CNC(=O)CCBr)NC(=O)CCBr` (stereo unspecified), the T/C (dose: 50.0 mg/kg/injection, schedule: Q01DX Z (ip), vehicle: carboxymethylcellulose (CMC)) was 103 % of control; the T/C (dose: 170.0 mg/kg/injection, schedule: Q01DX Z (ip), vehicle: carboxymethylcellulose (CMC)) was 100 % of control; the T/C under setting [11] was 153 % of control; the T/C under setting [12] was 178 % of control.
`O=c1cc[nH]c2ccc(Cl)cc12`: the T/C is 117 % of control under setting [13] and 102 % of control under setting [14].
With `Clc1nc(Cl)c(Cl)nc1Cl`, the T/C was 102 % of control (dose: 25.0 mg/kg/injection, schedule: Q01DX009 (ip), vehicle: saline with Tween-80); 100 % of control under setting [1]; 100 % of control under setting [3]; 110 % of control under setting [7]; 96 % of control (dose: 400.0 mg/kg/injection, schedule: Q01DX009 (ip), vehicle: saline with Tween-80).
With `CN(CS(=O)(=O)O)c1cc(F)cc(F)c1`, the T/C runs as follows: under setting [13], 102 % of control; under setting [14], 102 % of control; under setting [15], 98 % of control; under setting [16], 98 % of control.
As for `CCOC(=O)c1cc(Cl)c(N)c(Cl)c1`, the T/C reads like this: (dose: 100.0 mg/kg/injection, schedule: Q01DX009 (ip), vehicle: Klucel (hydroxypropylcellulose) (HPC)) 93 % of control; (dose: 200.0 mg/kg/injection, schedule: Q01DX009 (ip), vehicle: Klucel (hydroxypropylcellulose) (HPC)) 90 % of control; (dose: 400.0 mg/kg/injection, schedule: Q01DX009 (ip), vehicle: Klucel (hydroxypropylcellulose) (HPC)) 100 % of control.
As to `CCN1CCN(CC)C1=S`, the T/C (dose: 50.0 mg/kg/injection, schedule: Q04DX002 (ip), vehicle: Klucel (hydroxypropylcellulose) (HPC)) was 114 % of control; the T/C (dose: 100.0 mg/kg/injection, schedule: Q04DX002 (ip), vehicle: Klucel (hydroxypropylcellulose) (HPC)) is 90 % of control; the T/C (dose: 200.0 mg/kg/injection, schedule: Q04DX002 (ip), vehicle: Klucel (hydroxypropylcellulose) (HPC)) is 109 % of control.
Turning to `Nc1ncnc(N2CCOCC2)n1`, the T/C was 96 % of control (dose: 100.0 mg/kg/injection, schedule: Q01DX001 (ip), vehicle: carboxymethylcellulose (CMC)); 107 % of control (dose: 200.0 mg/kg/injection, schedule: Q01DX001 (ip), vehicle: carboxymethylcellulose (CMC)); 100 % of control (dose: 400.0 mg/kg/injection, schedule: Q01DX001 (ip), vehicle: carboxymethylcellulose (CMC)).
On to `C=CC(=O)N1c2ccccc2N(C(=O)C=C)C(C)C1C` (stereo unspecified), for which the T/C runs as follows: under setting [14], 112 % of control; under setting [15], 104 % of control; under setting [16], 98 % of control.
On to `C=C(COC(C)(C)C)CN(C)C`, for which the T/C under setting [14] is 94 % of control and the T/C under setting [15] was 93 % of control.
With `Cc1[nH]ccc2c(C)c3nc4ccccc4c3cc12`, the T/C (dose: 2.5 mg/kg/injection, schedule: Q01DX Z (ip), vehicle: carboxymethylcellulose (CMC)) is 110 % of control; the T/C (dose: 5.0 mg/kg/injection, schedule: Q01DX Z (ip), vehicle: carboxymethylcellulose (CMC)) was 114 % of control; the T/C (dose: 29.0 mg/kg/injection, schedule: Q04DX003 (ip), vehicle: saline with Tween-80) was 122 % of control; the T/C (dose: 40.0 mg/kg/injection, schedule: Q01DX Z (ip), vehicle: saline) was 151 % of control; the T/C under setting [13] is 98 % of control; the T/C (dose: 75.0 mg/kg/injection, schedule: Q01DX Z (ip), vehicle: saline) is 110 % of control. The T/C is, setting by setting: under setting [14], 112 % of control; (dose: 100.0 mg/kg/injection, schedule: Q01DX Z (ip), vehicle: saline) 92 % of control; under setting [5], 165 % of control; (dose: 150.0 mg/kg/injection, schedule: Q04DX003 (ip), vehicle: saline with Tween-80) 153 % of control; under setting [15], 110 % of control; under setting [16], 122 % of control.
For the compound `CSCCC(NC(=O)C(C)N)C(=O)O` (stereo unspecified), the T/C is 90 % of control under setting [14], 92 % of control under setting [15] and 101 % of control under setting [16].
Take `Cc1ccc(C(C)C)cc1NC(=O)/C=C/c1ccccc1`: the T/C (dose: 6.25 mg/kg/injection, schedule: Q01DX009 (ip), vehicle: saline with Tween-80) is 97 % of control and 98 % of control; the T/C (dose: 12.5 mg/kg/injection, schedule: Q01DX009 (ip), vehicle: saline with Tween-80) is 97 % of control and 98 % of control; the T/C (dose: 25.0 mg/kg/injection, schedule: Q04DX003 (ip), vehicle: saline with Tween-80) was 88 % of control; the T/C (dose: 50.0 mg/kg/injection, schedule: Q01DX001 (ip), vehicle: saline with Tween-80) was 95 % of control; the T/C (dose: 50.0 mg/kg/injection, schedule: Q04DX003 (ip), vehicle: saline with Tween-80) was 88 % of control; the T/C under setting [2] was 94 % of control. Also, the T/C runs as follows: under setting [4], 93 % of control and 96 % of control; under setting [5], 88 % of control; under setting [6], 86 % of control and 87 % of control; under setting [8], 88 % of control and 90 % of control; under setting [9], 89 % of control; under setting [10], 94 % of control and 108 % of control. The T/C (dose: 400.0 mg/kg/injection, schedule: Q04DX002 (ip), vehicle: saline with Tween-80) was 96 % of control and 88 % of control.
In the case of `Cc1cccc(CO)n1`, the T/C runs as follows: (dose: 100.0 mg/kg/injection, schedule: Q01DX009 (ip), vehicle: saline) 106 % of control; (dose: 100.0 mg/kg/injection, schedule: Q04DX003 (ip), vehicle: saline) 110 % of control; under setting [11], 108 % of control; (dose: 200.0 mg/kg/injection, schedule: Q04DX003 (ip), vehicle: saline) 110 % of control; under setting [12], 103 % of control; (dose: 400.0 mg/kg/injection, schedule: Q04DX003 (ip), vehicle: saline) 103 % of control.
With `COc1cc2c(cc1OC)C1(CCCl)C3CC4C(=CCOC5CC(=O)N2C1C54)CN3C(=O)Cc1ccccc1` (stereo unspecified), the T/C (dose: 75.0 mg/kg/injection, schedule: Q01DX001 (ip), vehicle: saline) is 100 % of control.
